# Measured values taken from patent publication US10358436B2, “Kinase inhibitors and method of treating cancer” (University Health Network, priority 2010, dated 2019).
# Biological target: Aurora A (Homo sapiens (Human), UniProt O14965)
# Assay: Aurora A inhibition assay (Z-Lyte)
# Format: biochemical
# Aurora A, sequence (O14965 whole entry): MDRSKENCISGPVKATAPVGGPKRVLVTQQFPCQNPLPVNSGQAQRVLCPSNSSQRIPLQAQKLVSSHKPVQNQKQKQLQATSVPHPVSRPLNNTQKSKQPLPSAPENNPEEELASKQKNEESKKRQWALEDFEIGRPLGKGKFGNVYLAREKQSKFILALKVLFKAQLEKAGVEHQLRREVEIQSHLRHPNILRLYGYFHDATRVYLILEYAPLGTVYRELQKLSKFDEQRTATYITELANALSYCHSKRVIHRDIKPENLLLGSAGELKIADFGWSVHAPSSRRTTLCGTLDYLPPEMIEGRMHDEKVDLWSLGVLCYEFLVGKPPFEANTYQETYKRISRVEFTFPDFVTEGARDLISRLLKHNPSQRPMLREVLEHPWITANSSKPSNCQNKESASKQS
row,SMILES,inhibition at 1 µM
1,"CC(C)CCN1C(=O)[C@@]2(C[C@H]2c2ccc3c(/C=C/c4ccc(CN(C)C)cc4)n[nH]c3c2)c2ccccc21 (relative stereo) [Example A176, (1R*,2S*)-(E)-2-(3-(4-((dimethylamino)methyl)styryl)-1H-indazol-6-yl)-1′-isopentylspiro[cyclopropane-1,3′-indolin]-2′-one]",> 50%
2,"COc1ccc2c(c1)[C@]1(C[C@H]1c1ccc3c(/C=C/c4ccc(N5CCN(C(C)C)CC5)cc4)n[nH]c3c1)C(=O)N2 (relative stereo) [Example A189, (1R*,2S*)-(E)-2-(3-(4-(4-isopropylpiperazin-1-yl)styryl)-1H-indazol-6-yl)-5′-methoxyspiro[cyclopropane-1,3′-indolin]-2′-one 2,2,2-trifluoroacetate]",> 50%
3,"Cc1ccc2c(c1)[C@]1(C[C@H]1c1ccc3c(/C=C/c4ccc(CN5CCOCC5)cc4)n[nH]c3c1)C(=O)N2 (relative stereo) [Example A196, (1R*,2S*)-(E)-5′-methyl-2-(3-(4-(morpholinomethyl)styryl)-1H-indazol-6-yl)spiro[cyclopropane-1,3′-indolin]-2′-one 2,2,2-trifluoroacetate]",> 50%
4,"O=C1Nc2ccc(F)cc2[C@]12C[C@H]2c1ccc2c(/C=C/c3ccc(N4CCOCC4)nc3)n[nH]c2c1 (relative stereo) [Example A207, (1R*,2S*)-5′-fluoro-2-(3-((E)-2-(6-morpholinopyridin-3-yl)vinyl)-1H-indazol-6-yl)spiro[cyclopropane-1,3′-indolin]-2′-one 2,2,2-trifluoroacetate]",> 50%
5,"CN(C)Cc1ccc(/C=C/c2n[nH]c3cc([C@@H]4C[C@@]45C(=O)Nc4ccc(F)cc45)ccc23)cc1 (relative stereo) [Example A208, (1R*,2S*)-(E)-2-(3-(4-((dimethylamino)methyl)styryl)-1H-indazol-6-yl)-5′-flurorospiro[cyclopropane-1,3′-indolin]-2′-one 2,2,2-trifluoroacetate]",> 50%

# Now from value to molecule:
row,inhibition at 1 µM,SMILES
1,> 50%,"COc1ccc2c(c1)[C@]1(C[C@H]1c1ccc3c(/C=C/c4csc(CN(C)C)c4)n[nH]c3c1)C(=O)N2 (relative stereo) [Example A181, (1R*,2S*)-2-(3-4E)-2-(5-((dimethylamino)methyl)thiophen-3-yl)vinyl)-1H-indazol-6-yl)-5′-methoxyspiro[cyclopropane-1,3′-indolin]-2′-one 2,2,2-trifluoroacetate]"
2,> 50%,"COc1ccc2c(c1)[C@]1(C[C@H]1c1ccc3c(/C=C/c4ccc(N5CCNCC5)cc4)n[nH]c3c1)C(=O)N2 (relative stereo) [Example A182, (1R*,2S*)-5′-methoxy-2-(3-(4-(piperazin-1-yl)styryl)-1H-indazol-6-yl)spiro[cyclopropane-1,3′-indolin]-2′-one 2,2,2-trifluoroacetate]"
3,> 50%,"COc1ccc2c(c1)[C@]1(C[C@H]1c1ccc3c(/C=C/c4csc(CN5CCOCC5)c4)n[nH]c3c1)C(=O)N2 (relative stereo) [Example A184, (1R*,2S*)-5′-methoxy-2-(3-((E)-2-(5-(morpholinomethyl)thiophen-3-yl)vinyl)-1H-indazol-6-yl)spiro[cyclopropane-1,3′-indolin]-2′-one 2,2,2-trifluoroacetate]"
4,> 50%,"CCN1CCN(c2ccc(/C=C/c3n[nH]c4cc([C@@H]5C[C@@]56C(=O)Nc5ccc(OC)cc56)ccc34)cc2)CC1 (relative stereo) [Example A188, (1R*,2S*)-(E)-2-(3-(4-(4-ethylpiperazin-1-yl)styryl)-1H-indazol-6-yl)-5′-methoxyspiro[cyclopropane-1,3′-indolin]-2′-one 2,2,2-trifluoroacetate]"
5,> 50%,"CCN1Cc2ccc(/C=C/c3n[nH]c4cc([C@@H]5C[C@@]56C(=O)Nc5ccc(OC)cc56)ccc34)cc2C1 (relative stereo) [Example A190, (1R*,2S*)-2-(3-((E)-2-(2-ethylisoindolin-5-yl)vinyl)-1H-indazol-6-yl)-5′-methoxyspiro[cyclopropane-1,3′-indolin]-2′-one 2,2,2-trifluoroacetate]"
